Measured values taken from ChEMBL document CHEMBL1201862, “PubChem BioAssay data set” (2004).
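Five compound concentrations were applied to cells in 96-well plates for 48 hours; endpoints were derived by simple linear interpolation of the resulting dose-response curve. At the GI50, growth is halved.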 Activity calls are given as the source filed them. Rule as the data show it: active = GI50 up to about 1.1 µM and inactive = higher.

Legend:
Test in all cases: NCI tumour cell line growth inhibition, 48 h
HT-29 = tested on: HT-29
LOX IMVI = tested on: LOX IMVI
UACC-62 = tested on: UACC-62
HOP-92 = tested on: HOP-92
OVCAR-4 = tested on: OVCAR-4
HL-60 = tested on: HL-60
UO-31 = tested on: UO-31
SNB-75 = tested on: SNB-75
RXF 393 = tested on: RXF 393
NCI-H460 = tested on: NCI-H460
M14 = tested on: M14
A549 = tested on: A549
SF-268 = tested on: SF-268
TK-10 = tested on: TK-10
CAKI-1 = tested on: CAKI-1
HCC 2998 = tested on: HCC 2998
MOLT-4 = tested on: MOLT-4
NCI-H23 = tested on: NCI-H23
PC-3 = tested on: PC-3

Measured: GI50

Clc1ccc(OCc2nnc3n2N=C(c2ccccc2)CS3)c(Cl)c1
inactive: HT-29 5.74 µM | LOX IMVI 1.64 µM | UACC-62 6.58 µM | HOP-92 4.21 µM | OVCAR-4 50.9 µM | HL-60 3.7 µM | UO-31 2.14 µM | SNB-75 3.02 µM | RXF 393 26.4 µM | NCI-H460 5 µM | M14 > 10 µM | A549 6.5 µM | SF-268 8.73 µM | TK-10 7.98 µM | CAKI-1 7.33 µM | HCC 2998 > 100 µM | MOLT-4 3.23 µM | NCI-H23 5.66 µM

O=C(O)C(=O)Cc1ccc2c(c1)OCO2
inactive: PC-3 > 100 µM | HT-29 > 100 µM | LOX IMVI > 100 µM | UACC-62 > 100 µM | HOP-92 > 100 µM | OVCAR-4 > 100 µM | HL-60 > 100 µM | UO-31 > 100 µM | SNB-75 > 100 µM | RXF 393 > 100 µM | NCI-H460 > 100 µM | M14 > 100 µM | A549 > 100 µM | TK-10 > 100 µM | CAKI-1 > 100 µM | MOLT-4 83.8 µM | NCI-H23 > 100 µM

CC(=O)C1=NN(c2ccccc2)C2(S1)SC(c1ccccc1)(c1ccccc1)c1ccccc12 (centres undefined)
inactive: HT-29 95.3 µM | LOX IMVI 61.5 µM | UACC-62 17.9 µM | HOP-92 10.4 µM | OVCAR-4 24.2 µM | HL-60 19.9 µM | UO-31 > 100 µM | SNB-75 19.3 µM | RXF 393 13.2 µM | NCI-H460 32.3 µM | M14 44.8 µM | A549 36.7 µM | SF-268 40.1 µM | TK-10 63.7 µM | HCC 2998 > 100 µM | MOLT-4 27.8 µM | NCI-H23 27.2 µM

C#C[C@@H](CCCC)OC(=O)N[C@H](C)c1ccccc1
inactive: HT-29 40.3 µM | LOX IMVI 33.2 µM | UACC-62 4.98 µM | HOP-92 1.83 µM | OVCAR-4 39.2 µM | HL-60 15.3 µM | UO-31 19 µM | SNB-75 33.3 µM | RXF 393 2.36 µM | NCI-H460 56.6 µM | M14 11.5 µM | A549 6.82 µM | SF-268 2.17 µM | TK-10 29.2 µM | CAKI-1 42.9 µM | HCC 2998 1.96 µM | MOLT-4 27.3 µM | NCI-H23 1.91 µM

CC/C=C\C/C=C\C1CC(=O)NCCCNCCCCN1 (centres undefined)
inactive: HT-29 > 100 µM | LOX IMVI > 100 µM | HOP-92 > 100 µM | OVCAR-4 > 100 µM | HL-60 > 100 µM | UO-31 > 100 µM | SNB-75 > 100 µM | RXF 393 4.83 µM | NCI-H460 > 100 µM | M14 48 µM | A549 > 100 µM | SF-268 > 100 µM | TK-10 > 100 µM | CAKI-1 > 100 µM | HCC 2998 > 100 µM | NCI-H23 > 100 µM

CCCCCCCCCCCC(=O)OCCOCCOCCOCCOCCOCc1ccccc1
inactive: HT-29 > 100 µM | LOX IMVI > 100 µM | UACC-62 > 100 µM | HOP-92 > 100 µM | OVCAR-4 > 100 µM | HL-60 34.4 µM | UO-31 > 100 µM | SNB-75 > 100 µM | RXF 393 > 100 µM | NCI-H460 > 100 µM | M14 > 100 µM | A549 > 100 µM | SF-268 > 100 µM | TK-10 > 100 µM | CAKI-1 > 100 µM | HCC 2998 > 100 µM | MOLT-4 > 100 µM | NCI-H23 > 100 µM

O=C(O)c1nc2ccc(C(F)(F)F)cc2nc1NCc1ccc(F)cc1
inactive: PC-3 26.5 µM | LOX IMVI 15.6 µM | UACC-62 15.9 µM | HOP-92 17.1 µM | OVCAR-4 > 100 µM | UO-31 2.75 µM | SNB-75 35.2 µM | RXF 393 > 100 µM | NCI-H460 19.4 µM | M14 18.5 µM | A549 19.1 µM | CAKI-1 37.8 µM | HCC 2998 22.8 µM | MOLT-4 9.23 µM | NCI-H23 24 µM

O=C1CC2(CCNCC2)C(=O)N1N1CCCC1
inactive: PC-3 > 100 µM | HT-29 > 100 µM | LOX IMVI > 100 µM | UACC-62 > 100 µM | HL-60 > 100 µM | UO-31 > 100 µM | RXF 393 > 100 µM | M14 > 100 µM | A549 > 100 µM | TK-10 > 100 µM | CAKI-1 > 100 µM | HCC 2998 > 100 µM | MOLT-4 > 100 µM | NCI-H23 > 100 µM

CN(C)CC(/C(Cc1ccccc1)=N\NC(=S)NN)c1ccccc1 (centres undefined)
inactive: HT-29 > 100 µM | LOX IMVI > 100 µM | UACC-62 > 100 µM | HOP-92 > 100 µM | OVCAR-4 > 100 µM | HL-60 > 100 µM | UO-31 > 100 µM | SNB-75 > 100 µM | RXF 393 > 100 µM | NCI-H460 > 100 µM | M14 > 100 µM | A549 > 100 µM | SF-268 > 100 µM | TK-10 > 100 µM | CAKI-1 > 100 µM | HCC 2998 > 100 µM | MOLT-4 > 100 µM | NCI-H23 > 100 µM

C=CCc1ccc(Oc2cc(CC=C)c3c(c2O)O[C@@H](CO)[C@H]3c2ccc(O)c(-c3cc(CC=C)ccc3O)c2)cc1
inactive: HT-29 23.4 µM | LOX IMVI 16.5 µM | UACC-62 30.1 µM | HOP-92 52.2 µM | OVCAR-4 54.7 µM | HL-60 23.8 µM | UO-31 77.1 µM | SNB-75 > 100 µM | RXF 393 65.2 µM | NCI-H460 24 µM | M14 47.6 µM | A549 > 100 µM | SF-268 58.7 µM | TK-10 > 100 µM | CAKI-1 > 100 µM | HCC 2998 45.9 µM | NCI-H23 47.3 µM

CC1(C)OCC(COC(=O)C=[N+]=[N-])O1 (centres undefined)
inactive: PC-3 > 100 µM | HT-29 > 100 µM | LOX IMVI > 100 µM | UACC-62 > 100 µM | HOP-92 14.9 µM | OVCAR-4 > 100 µM | HL-60 > 100 µM | UO-31 > 100 µM | RXF 393 > 100 µM | NCI-H460 13.2 µM | SF-268 > 100 µM | TK-10 > 100 µM | CAKI-1 > 100 µM | HCC 2998 > 100 µM | MOLT-4 > 100 µM | NCI-H23 > 100 µM

N#CCCN(c1ccc(/C=N/c2ccc(C(=O)O)cc2)cc1)S(=O)(=O)c1ccccc1
inactive: HT-29 > 100 µM | LOX IMVI > 100 µM | UACC-62 > 100 µM | HOP-92 > 100 µM | OVCAR-4 > 100 µM | HL-60 41.4 µM | UO-31 > 100 µM | SNB-75 > 100 µM | RXF 393 > 100 µM | NCI-H460 > 100 µM | M14 > 100 µM | A549 > 100 µM | SF-268 > 100 µM | TK-10 > 100 µM | CAKI-1 > 100 µM | HCC 2998 > 100 µM | MOLT-4 > 100 µM | NCI-H23 > 100 µM

CCOC(=O)/N=c1/nc(N(C)C)ss1
inactive: HT-29 > 100 µM | UACC-62 > 100 µM | HOP-92 > 100 µM | OVCAR-4 > 100 µM | HL-60 > 100 µM | UO-31 > 100 µM | SNB-75 > 100 µM | RXF 393 > 100 µM | NCI-H460 > 100 µM | M14 > 100 µM | A549 > 100 µM | SF-268 > 100 µM | TK-10 > 100 µM | CAKI-1 > 100 µM | HCC 2998 > 100 µM | MOLT-4 > 100 µM | NCI-H23 > 100 µM

O=C1C=C(Nc2cc(Cl)ccc2Cl)c2ccccc2C1=O
inactive: HT-29 86.9 µM | UACC-62 16.9 µM | HOP-92 20.4 µM | OVCAR-4 47.6 µM | HL-60 15.8 µM | UO-31 23.9 µM | SNB-75 25.9 µM | RXF 393 55.5 µM | NCI-H460 25.9 µM | M14 19.9 µM | A549 35.9 µM | SF-268 64.3 µM | CAKI-1 32.2 µM | HCC 2998 27.5 µM | NCI-H23 20.7 µM

O=C1C=C(Nc2ccc(Cl)cc2Cl)c2ccccc2C1=O
inactive: HT-29 > 100 µM | UACC-62 16.5 µM | HOP-92 21.2 µM | OVCAR-4 87.9 µM | HL-60 28.7 µM | UO-31 43.1 µM | SNB-75 22.4 µM | RXF 393 38.3 µM | NCI-H460 26.1 µM | M14 21.3 µM | A549 28.5 µM | SF-268 > 100 µM | TK-10 24.7 µM | CAKI-1 > 100 µM | HCC 2998 54.6 µM | MOLT-4 88.1 µM | NCI-H23 21.7 µM

CC(C)C(=O)NC(=S)Nc1ccc([N+](=O)[O-])cc1C#N
inactive: HT-29 > 100 µM | LOX IMVI > 100 µM | UACC-62 > 100 µM | HOP-92 > 100 µM | OVCAR-4 > 100 µM | HL-60 > 100 µM | UO-31 > 100 µM | SNB-75 16.7 µM | RXF 393 > 100 µM | NCI-H460 > 100 µM | M14 > 100 µM | A549 > 100 µM | SF-268 > 100 µM | TK-10 > 100 µM | CAKI-1 66.2 µM | HCC 2998 > 100 µM | MOLT-4 > 100 µM | NCI-H23 > 100 µM
